# Source: article PMC7385619, “A triple action CDK4/6-PI3K-BET inhibitor with augmented cancer cell cytotoxicity” (Cell Discovery, 2020)
# Columns and labels:
# Test in all cases: KINOMEscan assay (Eurofins DiscoverX)
# Assay type in all cases: binding
# kinome (kinase panel) [1] = target: T1, kinome (kinase panel) (Homo sapiens, UniProt O14920); conditions: IKK-beta (Entrez IKBKB); 1000 nM; read-out: Percent Control
# T1 construct: purchased Eurofins DiscoverX
# kinome (kinase panel) [2] = target: T2, kinome (kinase panel) (Homo sapiens, UniProt O15111); conditions: IKK-alpha (Entrez CHUK); 1000 nM; read-out: Percent Control
# T2 construct: purchased Eurofins DiscoverX
# kinome (kinase panel) [3] = target: T3, kinome (kinase panel) (Homo sapiens, UniProt O60331); conditions: PIP5K1C; 1000 nM; read-out: Percent Control
# T3 construct: purchased Eurofins DiscoverX
# kinome (kinase panel) [4] = target: T4, kinome (kinase panel) (Homo sapiens, UniProt O94921); conditions: PFTK1 (Entrez CDK14); 1000 nM; read-out: Percent Control
# T4 construct: purchased Eurofins DiscoverX
# kinome (kinase panel) [5] = target: T5, kinome (kinase panel) (Homo sapiens, UniProt O96017); conditions: CHEK2; 1000 nM; read-out: Percent Control
# T5 construct: purchased Eurofins DiscoverX
# kinome (kinase panel) [6] = target: T6, kinome (kinase panel) (Homo sapiens, UniProt P00533, DEL752-759); conditions: EGFR(S752-I759del); 1000 nM; read-out: Percent Control
# T6 construct: purchased Eurofins DiscoverX
# kinome (kinase panel) [7] = target: T7, kinome (kinase panel) (Homo sapiens, UniProt P07949, V804L); conditions: read-out: Percent Control
# T7 construct: purchased Eurofins DiscoverX
# kinome (kinase panel) [8] = target: T8, kinome (kinase panel) (Homo sapiens, UniProt P17612); conditions: PKAC-alpha (Entrez PRKACA); 1000 nM; read-out: Percent Control
# T8 construct: purchased Eurofins DiscoverX
# kinome (kinase panel) [9] = target: T9, kinome (kinase panel) (Homo sapiens, UniProt P17948); conditions: FLT1; 1000 nM; read-out: Percent Control
# T9 construct: purchased Eurofins DiscoverX
# kinome (kinase panel) [10] = target: T10, kinome (kinase panel) (Homo sapiens, UniProt P19525); conditions: PRKR (Entrez EIF2AK2); 1000 nM; read-out: Percent Control
# T10 construct: purchased Eurofins DiscoverX
# kinome (kinase panel) [11] = target: T11, kinome (kinase panel) (Homo sapiens, UniProt P21709); conditions: EPHA1; 1000 nM; read-out: Percent Control
# T11 construct: purchased Eurofins DiscoverX
# kinome (kinase panel) [12] = target: T12, kinome (kinase panel) (Homo sapiens, UniProt P29323); conditions: EPHB2; 1000 nM; read-out: Percent Control
# T12 construct: purchased Eurofins DiscoverX
# kinome (kinase panel) [13] = target: T13, kinome (kinase panel) (Homo sapiens, UniProt P42336, Q546K); conditions: read-out: Percent Control
# T13 construct: purchased Eurofins DiscoverX
# kinome (kinase panel) [14] = target: T14, kinome (kinase panel) (Homo sapiens, UniProt P48736); conditions: PIK3CG; 1000 nM; read-out: Percent Control
# T14 construct: purchased Eurofins DiscoverX
# kinome (kinase panel) [15] = target: T15, kinome (kinase panel) (Homo sapiens, UniProt Q06187); conditions: BTK; 1000 nM; read-out: Percent Control
# T15 construct: purchased Eurofins DiscoverX
# kinome (kinase panel) [16] = target: T16, kinome (kinase panel) (Homo sapiens, UniProt Q07002); conditions: PCTK3 (Entrez CDK18); 1000 nM; read-out: Percent Control
# T16 construct: purchased Eurofins DiscoverX
# kinome (kinase panel) [17] = target: T17, kinome (kinase panel) (Homo sapiens, UniProt Q09013); conditions: DMPK; 1000 nM; read-out: Percent Control
# T17 construct: purchased Eurofins DiscoverX
# kinome (kinase panel) [18] = target: T18, kinome (kinase panel) (Homo sapiens, UniProt Q12851); conditions: MAP4K2; 1000 nM; read-out: Percent Control
# T18 construct: purchased Eurofins DiscoverX
# kinome (kinase panel) [19] = target: T19, kinome (kinase panel) (Homo sapiens, UniProt Q13557); conditions: CAMK2D; 1000 nM; read-out: Percent Control
# T19 construct: purchased Eurofins DiscoverX
# kinome (kinase panel) [20] = target: T20, kinome (kinase panel) (Homo sapiens, UniProt Q13627); conditions: DYRK1A; 1000 nM; read-out: Percent Control
# T20 construct: purchased Eurofins DiscoverX
# kinome (kinase panel) [21] = target: T21, kinome (kinase panel) (Homo sapiens, UniProt Q15303); conditions: ERBB4; 1000 nM; read-out: Percent Control
# T21 construct: purchased Eurofins DiscoverX
# kinome (kinase panel) [22] = target: T22, kinome (kinase panel) (Homo sapiens, UniProt Q15569); conditions: TESK1; 1000 nM; read-out: Percent Control
# T22 construct: purchased Eurofins DiscoverX
# kinome (kinase panel) [23] = target: T23, kinome (kinase panel) (Homo sapiens, UniProt Q6P3R8); conditions: NEK5; 1000 nM; read-out: Percent Control
# T23 construct: purchased Eurofins DiscoverX
# kinome (kinase panel) [24] = target: T24, kinome (kinase panel) (Homo sapiens, UniProt Q6XUX3); conditions: RIPK5 (DSTYK); 1000 nM; read-out: Percent Control
# T24 construct: purchased Eurofins DiscoverX
# kinome (kinase panel) [25] = target: T25, kinome (kinase panel) (Homo sapiens, UniProt Q96BR1); conditions: SGK3; 1000 nM; read-out: Percent Control
# T25 construct: purchased Eurofins DiscoverX
# kinome (kinase panel) [26] = target: T26, kinome (kinase panel) (Homo sapiens, UniProt Q99640); conditions: PKMYT1; 1000 nM; read-out: Percent Control
# T26 construct: purchased Eurofins DiscoverX
# kinome (kinase panel) [27] = target: T27, kinome (kinase panel) (Homo sapiens, UniProt Q9BUB5); conditions: MKNK1; 1000 nM; read-out: Percent Control
# T27 construct: purchased Eurofins DiscoverX
# kinome (kinase panel) [28] = target: T28, kinome (kinase panel) (Homo sapiens, UniProt Q9H4A3); conditions: WNK1; 1000 nM; read-out: Percent Control
# T28 construct: purchased Eurofins DiscoverX
# kinome (kinase panel) [29] = target: T29, kinome (kinase panel) (Homo sapiens, UniProt Q9HBH9); conditions: MKNK2; 1000 nM; read-out: Percent Control
# T29 construct: purchased Eurofins DiscoverX
# kinome (kinase panel) [30] = target: T30, kinome (kinase panel) (Homo sapiens, UniProt Q9P1W9); conditions: PIM2; 1000 nM; read-out: Percent Control
# T30 construct: purchased Eurofins DiscoverX
# kinome (kinase panel) [31] = target: T31, kinome (kinase panel) (Homo sapiens, UniProt Q9UEW8); conditions: STK39; 1000 nM; read-out: Percent Control
# T31 construct: purchased Eurofins DiscoverX
# kinome (kinase panel) [32] = target: T32, kinome (kinase panel) (Homo sapiens, UniProt Q9Y463); conditions: DYRK1B; 1000 nM; read-out: Percent Control
# T32 construct: purchased Eurofins DiscoverX
# T19 sequence (Q13557 whole entry): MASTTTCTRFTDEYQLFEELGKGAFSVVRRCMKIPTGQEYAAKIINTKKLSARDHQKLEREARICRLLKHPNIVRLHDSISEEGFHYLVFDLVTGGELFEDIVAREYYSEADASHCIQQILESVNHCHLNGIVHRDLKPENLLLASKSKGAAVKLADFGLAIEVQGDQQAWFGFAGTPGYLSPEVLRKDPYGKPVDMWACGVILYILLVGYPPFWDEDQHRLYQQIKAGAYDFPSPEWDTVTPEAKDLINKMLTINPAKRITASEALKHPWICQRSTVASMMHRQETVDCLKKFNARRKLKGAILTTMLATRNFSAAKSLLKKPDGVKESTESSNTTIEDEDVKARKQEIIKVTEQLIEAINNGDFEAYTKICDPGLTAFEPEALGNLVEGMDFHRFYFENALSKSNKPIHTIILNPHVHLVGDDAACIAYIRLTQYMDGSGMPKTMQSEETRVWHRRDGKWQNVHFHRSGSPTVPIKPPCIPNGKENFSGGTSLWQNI
# T27 sequence (Q9BUB5 whole entry): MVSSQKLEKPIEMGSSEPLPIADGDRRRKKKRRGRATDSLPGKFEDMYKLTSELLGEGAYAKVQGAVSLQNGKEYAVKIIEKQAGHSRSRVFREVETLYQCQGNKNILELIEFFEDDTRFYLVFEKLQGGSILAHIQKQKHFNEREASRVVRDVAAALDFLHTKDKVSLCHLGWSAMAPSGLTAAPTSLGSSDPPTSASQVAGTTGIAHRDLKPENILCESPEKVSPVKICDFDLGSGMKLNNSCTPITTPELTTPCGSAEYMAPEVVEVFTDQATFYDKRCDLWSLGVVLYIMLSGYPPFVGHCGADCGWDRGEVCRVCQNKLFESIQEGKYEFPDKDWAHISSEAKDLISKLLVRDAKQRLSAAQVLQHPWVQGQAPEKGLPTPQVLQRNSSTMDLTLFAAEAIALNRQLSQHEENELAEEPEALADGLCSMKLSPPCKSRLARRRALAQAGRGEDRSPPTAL
# T16 sequence (Q07002 whole entry): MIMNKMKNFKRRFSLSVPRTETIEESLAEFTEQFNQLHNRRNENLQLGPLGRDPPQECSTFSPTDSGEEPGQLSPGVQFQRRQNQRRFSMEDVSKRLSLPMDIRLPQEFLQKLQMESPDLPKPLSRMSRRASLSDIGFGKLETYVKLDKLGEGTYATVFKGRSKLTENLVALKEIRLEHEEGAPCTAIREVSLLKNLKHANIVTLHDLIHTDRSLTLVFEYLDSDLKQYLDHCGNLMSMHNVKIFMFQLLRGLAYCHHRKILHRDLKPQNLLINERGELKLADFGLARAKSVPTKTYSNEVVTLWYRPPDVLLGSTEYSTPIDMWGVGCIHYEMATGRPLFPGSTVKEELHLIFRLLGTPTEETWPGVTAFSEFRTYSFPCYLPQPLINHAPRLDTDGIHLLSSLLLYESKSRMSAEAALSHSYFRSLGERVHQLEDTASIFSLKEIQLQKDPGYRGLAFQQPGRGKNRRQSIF
# T28 sequence (Q9H4A3 whole entry): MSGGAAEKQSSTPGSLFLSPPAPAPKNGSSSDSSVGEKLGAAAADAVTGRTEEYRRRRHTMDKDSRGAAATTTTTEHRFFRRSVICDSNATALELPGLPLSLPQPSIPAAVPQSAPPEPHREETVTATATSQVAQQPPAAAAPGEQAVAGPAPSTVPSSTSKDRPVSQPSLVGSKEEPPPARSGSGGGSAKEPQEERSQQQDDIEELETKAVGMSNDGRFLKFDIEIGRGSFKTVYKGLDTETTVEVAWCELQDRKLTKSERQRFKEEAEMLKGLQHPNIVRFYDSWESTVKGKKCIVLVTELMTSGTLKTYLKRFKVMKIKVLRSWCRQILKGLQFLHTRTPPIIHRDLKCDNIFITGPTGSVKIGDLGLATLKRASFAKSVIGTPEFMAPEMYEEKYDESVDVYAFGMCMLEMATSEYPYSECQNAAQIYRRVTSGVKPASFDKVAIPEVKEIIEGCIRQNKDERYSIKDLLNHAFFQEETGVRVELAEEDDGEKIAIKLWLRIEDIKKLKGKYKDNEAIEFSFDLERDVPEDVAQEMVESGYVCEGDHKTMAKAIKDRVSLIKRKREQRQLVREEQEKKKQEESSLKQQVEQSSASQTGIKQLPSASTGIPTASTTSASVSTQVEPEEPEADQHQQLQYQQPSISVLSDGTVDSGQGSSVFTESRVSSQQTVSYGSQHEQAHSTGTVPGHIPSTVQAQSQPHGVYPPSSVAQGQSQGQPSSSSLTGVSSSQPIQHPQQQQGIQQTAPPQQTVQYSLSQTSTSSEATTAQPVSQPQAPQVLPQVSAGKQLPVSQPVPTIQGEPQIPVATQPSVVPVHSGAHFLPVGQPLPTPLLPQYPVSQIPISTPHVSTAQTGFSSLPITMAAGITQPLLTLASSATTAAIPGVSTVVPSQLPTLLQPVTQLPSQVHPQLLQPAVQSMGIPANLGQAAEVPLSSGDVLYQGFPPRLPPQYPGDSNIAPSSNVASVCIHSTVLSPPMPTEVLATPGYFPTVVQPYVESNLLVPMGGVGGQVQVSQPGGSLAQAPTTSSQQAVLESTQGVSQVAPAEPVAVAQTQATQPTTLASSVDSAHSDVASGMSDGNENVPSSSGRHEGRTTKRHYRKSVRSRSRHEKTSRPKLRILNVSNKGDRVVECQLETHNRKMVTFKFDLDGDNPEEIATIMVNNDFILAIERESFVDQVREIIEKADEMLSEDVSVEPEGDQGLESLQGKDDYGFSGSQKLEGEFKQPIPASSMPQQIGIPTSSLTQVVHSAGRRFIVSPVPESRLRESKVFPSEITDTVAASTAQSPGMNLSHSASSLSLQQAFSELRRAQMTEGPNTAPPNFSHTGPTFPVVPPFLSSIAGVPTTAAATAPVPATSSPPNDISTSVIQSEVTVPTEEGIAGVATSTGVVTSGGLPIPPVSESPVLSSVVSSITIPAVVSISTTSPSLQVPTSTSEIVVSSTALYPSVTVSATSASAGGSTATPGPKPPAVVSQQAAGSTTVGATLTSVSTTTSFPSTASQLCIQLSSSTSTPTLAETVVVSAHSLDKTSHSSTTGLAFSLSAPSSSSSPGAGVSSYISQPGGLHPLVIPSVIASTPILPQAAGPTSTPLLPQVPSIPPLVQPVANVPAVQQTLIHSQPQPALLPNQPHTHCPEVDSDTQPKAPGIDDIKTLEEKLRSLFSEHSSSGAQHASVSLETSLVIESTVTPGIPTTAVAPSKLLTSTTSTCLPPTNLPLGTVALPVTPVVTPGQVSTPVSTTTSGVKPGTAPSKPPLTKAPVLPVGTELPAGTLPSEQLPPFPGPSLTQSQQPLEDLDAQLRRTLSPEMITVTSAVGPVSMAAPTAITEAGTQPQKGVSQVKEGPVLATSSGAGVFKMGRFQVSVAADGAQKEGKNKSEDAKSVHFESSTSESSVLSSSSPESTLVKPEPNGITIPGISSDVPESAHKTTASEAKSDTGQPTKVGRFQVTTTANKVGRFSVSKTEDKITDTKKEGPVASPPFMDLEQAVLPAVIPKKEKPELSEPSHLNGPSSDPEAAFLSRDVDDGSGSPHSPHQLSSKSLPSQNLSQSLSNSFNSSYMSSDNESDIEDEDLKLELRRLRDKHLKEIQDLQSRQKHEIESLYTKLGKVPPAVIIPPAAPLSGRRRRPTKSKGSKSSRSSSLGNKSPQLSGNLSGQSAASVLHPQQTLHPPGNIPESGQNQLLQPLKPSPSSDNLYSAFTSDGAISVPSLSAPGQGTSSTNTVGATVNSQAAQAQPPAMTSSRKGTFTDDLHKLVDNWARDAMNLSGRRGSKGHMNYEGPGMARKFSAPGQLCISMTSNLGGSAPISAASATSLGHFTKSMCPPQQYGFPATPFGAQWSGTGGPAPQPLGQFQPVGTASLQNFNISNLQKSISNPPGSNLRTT
# T7 sequence (P07949 29-1114 V804L): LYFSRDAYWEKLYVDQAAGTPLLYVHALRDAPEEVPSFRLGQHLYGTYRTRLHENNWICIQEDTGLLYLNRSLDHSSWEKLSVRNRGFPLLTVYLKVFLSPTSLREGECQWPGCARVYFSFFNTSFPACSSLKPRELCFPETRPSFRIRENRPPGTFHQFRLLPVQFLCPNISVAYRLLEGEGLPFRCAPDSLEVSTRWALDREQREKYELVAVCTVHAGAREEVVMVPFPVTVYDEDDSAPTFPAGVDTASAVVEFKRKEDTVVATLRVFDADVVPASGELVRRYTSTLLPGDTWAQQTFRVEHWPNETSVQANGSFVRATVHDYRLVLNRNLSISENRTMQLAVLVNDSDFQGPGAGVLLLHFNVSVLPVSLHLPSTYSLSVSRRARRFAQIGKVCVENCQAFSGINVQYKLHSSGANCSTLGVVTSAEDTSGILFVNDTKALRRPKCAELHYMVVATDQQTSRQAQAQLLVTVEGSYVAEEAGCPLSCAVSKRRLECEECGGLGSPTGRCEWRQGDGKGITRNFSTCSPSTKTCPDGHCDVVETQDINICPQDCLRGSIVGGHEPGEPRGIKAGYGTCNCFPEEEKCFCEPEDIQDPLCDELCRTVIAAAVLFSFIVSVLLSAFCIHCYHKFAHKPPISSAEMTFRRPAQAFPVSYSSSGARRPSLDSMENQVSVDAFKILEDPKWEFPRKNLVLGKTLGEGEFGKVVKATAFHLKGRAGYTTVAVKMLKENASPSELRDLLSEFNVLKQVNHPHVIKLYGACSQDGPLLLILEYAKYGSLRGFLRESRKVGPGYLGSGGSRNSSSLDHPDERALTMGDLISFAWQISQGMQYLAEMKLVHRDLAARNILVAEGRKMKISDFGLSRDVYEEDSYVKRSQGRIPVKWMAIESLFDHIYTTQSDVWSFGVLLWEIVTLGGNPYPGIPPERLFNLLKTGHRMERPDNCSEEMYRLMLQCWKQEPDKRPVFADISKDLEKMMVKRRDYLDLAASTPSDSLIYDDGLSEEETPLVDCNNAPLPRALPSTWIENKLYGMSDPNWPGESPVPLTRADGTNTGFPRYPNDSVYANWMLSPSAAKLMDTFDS
smiles,measurement,setting,value
CN(C)C(=O)c1cc2cnc(Nc3ccc(-c4csc5c(=O)cc(N6CCOCC6)oc45)cc3)nc2n1C1CCCC1 [SRX3177],remaining binding at 1 µM,kinome (kinase panel) [1],71%
same,remaining binding at 1 µM,kinome (kinase panel) [2],61%
same,remaining binding at 1 µM,kinome (kinase panel) [3],87%
same,remaining binding at 1 µM,kinome (kinase panel) [4],73%
same,remaining binding at 1 µM,kinome (kinase panel) [5],94%
same,remaining binding at 1 µM,kinome (kinase panel) [6],100%
same,remaining binding at 1 µM,kinome (kinase panel) [7],99%
same,remaining binding at 1 µM,kinome (kinase panel) [8],96%
same,remaining binding at 1 µM,kinome (kinase panel) [9],91%
same,remaining binding at 1 µM,kinome (kinase panel) [10],97%
same,remaining binding at 1 µM,kinome (kinase panel) [11],79%
same,remaining binding at 1 µM,kinome (kinase panel) [12],97%
same,remaining binding at 1 µM,kinome (kinase panel) [13],41%
same,remaining binding at 1 µM,kinome (kinase panel) [14],85%
same,remaining binding at 1 µM,kinome (kinase panel) [15],67%
same,remaining binding at 1 µM,kinome (kinase panel) [16],74%
same,remaining binding at 1 µM,kinome (kinase panel) [17],100%
same,remaining binding at 1 µM,kinome (kinase panel) [18],82%
same,remaining binding at 1 µM,kinome (kinase panel) [19],65%
same,remaining binding at 1 µM,kinome (kinase panel) [20],60%
same,remaining binding at 1 µM,kinome (kinase panel) [21],100%
same,remaining binding at 1 µM,kinome (kinase panel) [22],87%
same,remaining binding at 1 µM,kinome (kinase panel) [23],93%
same,remaining binding at 1 µM,kinome (kinase panel) [24],87%
same,remaining binding at 1 µM,kinome (kinase panel) [25],100%
same,remaining binding at 1 µM,kinome (kinase panel) [26],88%
same,remaining binding at 1 µM,kinome (kinase panel) [27],42%
same,remaining binding at 1 µM,kinome (kinase panel) [28],93%
same,remaining binding at 1 µM,kinome (kinase panel) [29],45%
same,remaining binding at 1 µM,kinome (kinase panel) [30],100%
same,remaining binding at 1 µM,kinome (kinase panel) [31],71%
same,remaining binding at 1 µM,kinome (kinase panel) [32],56%
